Measurements: patent US8158621B2, “Methods of treating or preventing autoimmune diseases with 2,4-pyrimidinediamine compounds” (Rigel Pharmaceuticals, Inc., priority 2002, dated 2012)

What was measured:
[1] = tested on: cultured human mast cells (CHMC); test: CHMC high cell density IgE activation: tryptase; assay type: cell-based
[2] = tested on: cultured human mast cells (CHMC); test: CHMC low cell density ionomycin activation: tryptase assay; assay type: cell-based
[3] = tested on: cultured human mast cells (CHMC); test: CHMC high cell density IgE activation: TNFalpha; assay type: cell-based; settings: read-out: CHMC high density TNF-alpha
Procedure, shortened: (§1)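 IgE-sensitized CHMC at 1-2 ×10^6 cells/ml were preincubated with compound (0.5% DMSO) for 1 h at 37 °C, then stimulated with anti-IgE for 1 h before supernatant collection. Pellets were reincubated with compound for 7 h at 37 °C, and mediators were measured by ELISA on diluted supernatants.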

[4] = tested on: cultured human mast cells (CHMC); test: CHMC high cell density IgE activation: LTC4; assay type: cell-based
Procedure, shortened: as §1

[5] = tested on: Human Jurkat T-cells (clone N); test: Jurkat T-cell activation (anti-TCR, CD69 upregulation); assay type: cell-based
Procedure, shortened: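 Readout is CD69 upregulation by flow cytometry (anti-CD69-APC, 20 min at 4 °C) after 20 h anti-TCR (C305, 500 ng/ml) stimulation at 37 °C.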

[6] = tested on: cultured human mast cells (CHMC); test: CHMC high cell density IgE activation: hexos; assay type: cell-based
B-cell line BJAB [7] = test: BJAB toxicity, Cell Titer Glo assay; assay type: cell-based
Experimental: (§2) Seed 50 μl cells (1×10^6/ml) into each well containing 50 μl compound. The final vehicle concentration is 0.5% DMSO, 1.5% MeOH. Shake plates for 1 minute to mix cells and compound. Incubate plates at 37° C. (5% CO2) for 18 hours. Next day, harvest 50 μl cells from each well, add to 50 μl Cell Titer Glo reagent ([…]). Shake plates for 1 minute. Read on luminometer.

Jurkat cells [8] = test: Jurkat toxicity, Cell Titer Glo assay; assay type: cell-based, human
Experimental: as §2, with “The final vehicle concentration is 0.5% DMSO, 1.5% MeOH.” left out, “(5% CO2) for 18 hours.” left out

[9] = tested on: cultured human mast cells (CHMC); test: CHMC low cell density IgE activation: tryptase assay; assay type: cell-based; settings: Low Density; read-out: CHMC anti-IgE Tryptase
Procedure, shortened: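 Read-out: tryptase released into supernatant, measured by substrate turnover over 30 min at RT. Low-density CHMC (1000-1500 cells/well, per donor degranulation activity) in MT buffer, 1 hr at 37° C, then anti-IgE challenge 30 min at 37° C.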

[10] = tested on: basophil cells (human peripheral blood); test: Basophil anti-IgE activation: histamine release assay; assay type: cell-based; settings: basophils, anti-IgE activation, histamine release; read-out: Basophils anti-IgE Histamine IC50
Experimental: The basophil activation assay was carried out using whole human peripheral blood from donors allergic to dust mites with the majority of the red blood cells removed by dextran sedimentation. Human peripheral blood was mixed 1:1 with 3% dextran T500 and RBCs were allowed to settle for 20-25min. The upper fraction was diluted with 3 volumes of D-PBS and cells were spun down for 10 min at 1500 rpm, RT. Supernatant was aspirated and cells were washed in an equal volume MT-buffer. Finally, cells were resuspended in MT-buffer containing 0.5% DMSO in the original blood volume. 80 uL cells were mixed with 20 uL compound in the presence of 0.5% DMSO, in triplicate, in a V-bottom 96-well tissue culture plate. A dose range of 8 compound concentrations was tested resulting in a 10-point dose response curve including maximum (stimulated) and minimum (unstimulated) response. […] The cells were stimulated for 30 minutes at 37° C., 5% CO2. The plate was spun for 10 min at 1500 rpm at room temperature and 80 uL the supernatant was harvested for histamine content analysis using the histamine ELISA kit supplied by Immunotech. The ELISA was performed according to supplier's instructions.

[11] = tested on: basophil cells (human peripheral blood); test: Basophil ionomycin activation: histamine release assay; assay type: cell-based; settings: basophils, ionomycin activation, histamine release; read-out: Basophils Ionomycin Histamine IC50
Procedure, shortened: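 Dextran-sedimented leukocytes from peripheral blood of dust-mite-allergic human donors were incubated with compound (8 concentrations, 0.5% DMSO, triplicate) and then stimulated with 2 μM ionomycin stock (20 μl added) for 30 min at 37° C. Histamine released into the supernatant was measured by ELISA.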

[12] = tested on: bone marrow derived mast cells (BMMC); test: BMMC high cell density ionomycin activation: hexosaminidase; assay type: cell-based, mouse; settings: read-out: BMMC Ionomycin Hexos.
Experimental: Add 50 uL of BMMC cell supernatant (see above) to the hexoseaminidase substrate, place at 37° C. for 30 minutes and read the plate at 5, 10, 15, and 30 minutes on a spectrophotometer.

[13] = tested on: cultured human mast cells (CHMC); test: CHMC low cell density IgE activation: LTC4 assay; assay type: cell-based; settings: anti-IgE activation, LTC4 release
Procedure, shortened: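 Degranulation measured after 30 min anti-IgE challenge at 37° C of CHMC plated at 1000-1500 cells/well following 1 h preincubation. Readouts: LTC4 by ELISA on donor-specific diluted supernatants, and tryptase activity from a 30 min room-temperature substrate reaction.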

[14] = tested on: cultured human mast cells (CHMC); test: CHMC low cell density ionomycin activation: hexosaminidase assay; assay type: cell-based; settings: hexosaminidase release, read-out: CHMC Ionomycin Hexos. IC50
Experimental: (§3) Inhibition of degranulation was measured at both low and high cell density by quantifying the release of the granule specific factors tryptase, histamine and hexosaminidase. Inhibition of release and/or synthesis of lipid mediators was assessed by measuring the release of leukotriene LTC4 and inhibition of release and/or synthesis of cytokines was monitored by quantifying TNF-α, IL-6 and IL-13. Tryptase and hexosaminidase were quantified using fluorogenic substrates as described in their respective examples. Histamine, TNFα, IL-6, IL-13 and LTC4 were quantified using the following commercial ELISA kits: histamine (Immunotech #2015, Beckman Coulter), TNFα (Biosource #KHC3011), IL-6 (Biosource #KMC0061), IL-13 (Biosource #KHC0132) and LTC4 (Cayman Chemical #520211). The protocols of the various assays are provided below.

[15] = tested on: bone marrow derived mast cells (BMMC); test: BMMC high cell density IgE activation: hexosaminidase; assay type: cell-based, mouse; settings: High Density; read-out: BMMC anti-IgE hexos
Jurkat cells [16] = test: Jurkat (T-cell) toxicity, light scatter; assay type: cell-based, human; settings: read-out: Toxicity Jurkat Light Scat.
Experimental: Dilute Jurkat cells to 2×10^5 cells/ml in complete RPMI (10% heat-inactivated fetal bovine serum) media and incubate at 37° C., 5% CO2 for 18 hours. Add 65 ul cells at 7.7×10^5 cells/ml to a 96-well V-bottom plate (TC-treated, Costar) containing 65 ul 2× compound (final vehicle concentration is 0.5% DMSO, 1.5% MeOH). Mix, incubate plates for 18-24 hr at 37° C., 5% CO2. Toxicity was assessed by flow cytometric analysis of cellular light scatter

B-cell line BJAB [17] = test: BJAB (B-cell) toxicity, light scatter; assay type: cell-based; settings: read-out: Toxicity BJAB Light Scat.
Experimental: The B-cell line BJAB was cultured in log phase in RPMI1640+10% heat-inactivated fetal bovine serum, 1× L-glutamine, 1× penicillin, 1× […] and 1× beta-mercaptoethanol at 37° C., 5% CO2. First, BJABs were harvested, spun and resuspended in culture medium to a concentration of 7.7×10^5 cells/mL. 65 uL cells were mixed with 65 uL compound, in duplicate and in the presence of 0.1% DMSO in a V-bottomed 96-well tissue culture plate. Cells were incubated with compound at various dilutions at 37° C., 5% CO2. Toxicity was assessed by flow cytometric analysis of cellular light scatter.

Syk kinase = biological target: T1, Syk kinase (Homo sapiens, UniProt P43405); test: Syk kinase biochemical fluorescence polarization assay; settings: isolated Syk kinase, fluorescence polarization, 4 uM ATP
T1 construct: purchased Upstate, Lake Placid NY

[18] = tested on: cultured human mast cells (CHMC); test: CHMC low cell density IgE activation: hexosaminidase assay; assay type: cell-based; settings: anti-IgE activation, hexosaminidase release, read-out: CHMC anti-IgE Hexos. IC50
Experimental: as §3

| IC50 ([2]; Low Density, read-out: CHMC Ionomycin Tryptase) [µM] | IC50 [3] [nM] | IC50 [4] [nM] | IC50 [5] [µM] | IC50 [9] [nM] | IC50 ([2]; Low Density CHMC, ionomycin activation, tryptase release, read-out: CHMC Ionomycin Tryptase IC50) [µM] | IC50 [10] [nM] | IC50 [12] [µM] | IC50 [13] [nM] | IC50 [14] [µM] | IC50 [15] [nM] | IC50 [18] [nM] | Compound | IC50 [1] [nM] | IC50 [6] [nM] | IC50 (B-cell line BJAB [7]) [µM] | IC50 (Jurkat cells [8]) [µM] | IC50 [11] [µM] | IC50 (Jurkat cells [16]) [µM] | IC50 (B-cell line BJAB [17]) [µM] | IC50 (Syk kinase) [nM] |
| --- | --- | --- | --- | --- | --- | --- | --- | --- | --- | --- | --- | --- | --- | --- | --- | --- | --- | --- | --- | --- |
| > 10 | > 2000 | < 220 | 5.37 | 930 |  |  |  |  |  |  |  | OCCOc1cccc(Nc2ncc(F)c(Nc3cccc(OCCO)c3)n2)c1 [Compound R935075] | 1210 | 647 | > 4.33 | > 4.33 |  |  |  |  |
|  |  |  | 4.38 |  | > 10 | 370 | > 10 | 800 | > 10 | 600 |  | Oc1cccc(Nc2ncc(F)c(Nc3ccc4c(c3)OCCO4)n2)c1 [Compound R926210] |  |  |  |  | > 10 | > 10 | > 10 |  |
|  |  |  | > 10 |  |  |  | 5 | 1590 | 6.7 | 1350 | 761 | CCOc1ccc(Nc2nc(Nc3cccc(O)c3)ncc2F)cc1 [Compound R926146] |  |  |  |  |  | > 10 | > 10 |  |

| Compound | IC50 ([2]; Low Density, read-out: CHMC Ionomycin Tryptase) [µM] | IC50 [3] [nM] | IC50 [4] [nM] | IC50 [5] [µM] | IC50 [9] [nM] | IC50 ([2]; Low Density CHMC, ionomycin activation, tryptase release, read-out: CHMC Ionomycin Tryptase IC50) [µM] | IC50 [10] [nM] | IC50 [12] [µM] | IC50 [13] [nM] | IC50 [14] [µM] | IC50 [15] [nM] | IC50 [18] [nM] | IC50 [1] [nM] | IC50 [6] [nM] | IC50 (B-cell line BJAB [7]) [µM] | IC50 (Jurkat cells [8]) [µM] | IC50 [11] [µM] | IC50 (Jurkat cells [16]) [µM] | IC50 (B-cell line BJAB [17]) [µM] | IC50 (Syk kinase) [nM] |
| --- | --- | --- | --- | --- | --- | --- | --- | --- | --- | --- | --- | --- | --- | --- | --- | --- | --- | --- | --- | --- |
| O=C(c1cc2cc(Nc3ncc(F)c(Nc4ccc5c(c4)OCCO5)n3)ccc2o1)N1CCNCC1 [Compound R926501] |  |  |  | 1.68 |  |  |  |  |  |  |  |  | > 2000 | > 2000 | > 4.33 | > 4.33 | > 10 |  |  | 193 |
